Literature values as cited in US20190045778A1, “EMULSIFIABLE CONCENTRATES” (priority 2016, published 2019).
Where two headings read alike, the source gives them in different places.

| Molecule | Water Solubility (at 20° C.) | Water Solubility (at 25° C.) |
| --- | --- | --- |
| CN/C(=N\[N+](=O)[O-])NCc1cnc(Cl)s1 [clothianidin] | 0.33 g/L at 20 °C | – |
| N#C/N=C1/SCCN1Cc1ccc(Cl)nc1 [thiacloprid] | 0.1 g/L at 20 °C | – |
| thiamethoxam | – | 4.1 g/L at 25 °C |
